Columns and labels:
[1] = molecular target: T1, hM3Dq (Homo sapiens, UniProt P20309, A239G/Y149C); test: Chemogenetic manipulation of BG direct pathway in mice with hM3Dq: rotations, nigral c-Fos; format: in vivo; settings: for c-Fos+ cells in the SNr: AAV8R12-G88P3-HA-hM3Dq; for rotation behavior (FIG. 6C), mean±SEM: control vector AAV8R12-G88P3-EYFP, n=5, no effect
T1 construct: expressed in transfected cells; host or cells: neurons of C57BL/6J mice or of macaques, transduced in vivo by nigral AAV8R12-G88P3-HA-hM3Dq
T1 sequence (P20309 whole entry Y149C/A239G): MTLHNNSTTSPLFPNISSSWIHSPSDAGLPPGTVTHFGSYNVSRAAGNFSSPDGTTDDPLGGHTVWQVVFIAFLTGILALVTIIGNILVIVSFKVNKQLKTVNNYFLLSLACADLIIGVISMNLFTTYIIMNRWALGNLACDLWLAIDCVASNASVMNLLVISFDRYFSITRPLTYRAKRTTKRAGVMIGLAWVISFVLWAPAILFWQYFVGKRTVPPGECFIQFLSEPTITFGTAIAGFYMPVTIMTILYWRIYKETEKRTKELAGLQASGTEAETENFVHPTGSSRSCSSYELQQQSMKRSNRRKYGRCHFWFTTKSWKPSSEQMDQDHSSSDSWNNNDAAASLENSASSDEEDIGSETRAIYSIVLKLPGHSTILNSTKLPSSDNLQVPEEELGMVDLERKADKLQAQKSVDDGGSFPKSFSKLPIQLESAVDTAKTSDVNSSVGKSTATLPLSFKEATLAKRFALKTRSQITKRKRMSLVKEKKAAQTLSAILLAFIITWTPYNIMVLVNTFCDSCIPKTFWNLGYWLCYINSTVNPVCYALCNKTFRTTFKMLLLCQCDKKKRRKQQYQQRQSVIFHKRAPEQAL
Procedure: Mice were anesthetized with sodium pentobarbital (Nembutal; 80 mg/kg, i.p.), and then placed into a stereotaxic device (KOPF). Eye cream was applied on both corneas to avoid dehydration. The skull above the targeted areas was thinned with a dental drill and carefully removed. Injections were conducted with a 10 μL syringe connected to a 33-Gauge needle (Neuros; Hamilton), using a microsyringe pump (Legato 130, KD Scientific). A total volume of 200 nL virus was injected into the SNr at a speed of 20 nL/min. The coordinates for the SNr were 3.4 mm posterior, 1.3 mm lateral, 4.8 mm ventral to the bregma.
Mice that were used in the behavioral experiments were then implanted with guide cannulas (KOPF) unilaterally aiming at the dorsomedial striatum (0.5 mm anterior, 1.5 mm lateral, 3.5 mm ventral to the bregma). The cannulas were fixed to the skull with dental cement. Stainless steel obturators were inserted into the guide cannulas and were replaced every other day to maintain the patency until infusions were made. Mice were allowed to recover from the surgery for at least 3 weeks before further studies.
Labeling specificity of the retrograde AAV tracers was examined. […] To explore the functional features of retrograde AAV-labeled cells, AAV8R12-G88P3-HA-hM3Dq, which enables neuronal excitation upon clozapine N-oxide (CNO) administration, were injected into the right SNr of C57BL/6J mice. […] Based on the observed infection patterns of retrograde AAV, it was reasoned that the ipsiversive rotations were a consequence of the activation of the right SNr, which is a major inhibitory output center of the BG and was labeled by the locally injected AAV.
Mice were individually handled for 10-20 seconds per day for at least 5 days to habituate them to the experimenter. The open field test was conducted in a test apparatus (50 cm×50 cm×50 cm) with an HD digital camera (Sony) positioned above the arena. On day one, mice were habituated to the apparatus for 10 minutes. On day 2, mice were administrated saline (0.1 mL i.p. or 200 nL intracranially [i.e.] through the guide cannulas). On day 3, mice were administrated with Clozapine-N-oxide (CNO, Hello Bio, HB1807; 0.3 mg/kg i.p. or 200 nL at 100 μM i.e.). All behavioral tests were conducted 30 minutes after injection. During the test, mice were allowed to freely explore the apparatus for 10 minutes. The behavioral data were analyzed with ANY-maze software (Stoelting Co.).

[2] = molecular target: T2, rM3Ds (Rattus norvegicus, UniProt P08483, A177S/A238G/A489L/DEL261-437/DEL441-478/E258S/I253V/I483M/INS256[…]/K178L/K182A/K255R/K484R/K486H/L173F/L482A/M480V/R171S/R176Q/R179M/S481M/T174R/T181R/T257A/Y148C); test: 6-OHDA parkinsonian mouse model: open field and rotarod; format: in vivo; set-up: 2A-EYFP (C); expressed in transfected cells; host or cells: neurons (striatal D1-MSNs) of mice or cynomolgus macaques, transduced in vivo by nigral AAV8R12-G88P7-rM3Ds-2A-EYFP; settings: AAV8R12-G88P7-rM3Ds-2A-EYFP, 6-OHDA mice
T2 sequence (P08483 with tags, fused parts or gaps Y148C/R171S/L173F/T174R/R176Q/A177S/K178L/R179M/T181R/K182A/A238G/I253V/K255R/INS256[…]/T257A/E258S/DEL261-437/DEL441-478/M480V/S481M/L482A/I483M/K484R/K486H/A489L): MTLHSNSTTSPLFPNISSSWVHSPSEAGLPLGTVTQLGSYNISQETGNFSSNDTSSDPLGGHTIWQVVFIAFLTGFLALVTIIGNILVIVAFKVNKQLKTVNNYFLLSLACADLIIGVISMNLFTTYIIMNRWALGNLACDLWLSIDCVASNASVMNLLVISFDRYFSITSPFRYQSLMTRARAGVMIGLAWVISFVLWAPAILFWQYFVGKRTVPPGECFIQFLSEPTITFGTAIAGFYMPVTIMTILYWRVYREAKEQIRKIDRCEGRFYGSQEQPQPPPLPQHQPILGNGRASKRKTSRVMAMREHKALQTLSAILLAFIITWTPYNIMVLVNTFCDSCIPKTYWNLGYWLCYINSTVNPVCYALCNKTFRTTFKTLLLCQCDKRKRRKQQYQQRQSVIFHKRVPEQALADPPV
Procedure: Rodent Parkinson's disease mice models were created through bilateral injection of 6-OHDA using the same methods as described in virus injections (Example 3). A total volume of 1 ul 6-OHDA (5 mg/ml, dissolved in sterile saline containing 0.02% ascorbic acid, Sigma) was injected into the striatum at a speed of 100 nL/min. The coordinates for striatum were 0.5 mm anterior, 1.5 mm lateral, 3.2 mm ventral to the bregma. A premedication of desipramine (25 mg/kg, Sigma) was administered to animals prior to injections of 6-OHDA, in order to increase the selectivity and efficacy of 6-OHDA-induced lesions. Mice were supplemented with DietGel (ClearH2O) for one-week post-surgery. All staining and behavioral experiments were performed at least 14 days following surgery, when the amount of dopamine depletion was maximal and stable.
To investigate the efficacy and safety of D1-MSN specific neuromodulation strategy, AAV8R12-G88P7-rM3Ds-2A-EYFP was injected into the SNr of adult C57/BL6 mice. 6-OHDA was administered bilaterally into the striatum (FIG. 13A). […]
Mice were individually handled for 10-20 seconds per day for at least 5 days to habituate them to the experimenter. […] The behavioral data were analyzed with ANY-maze software (Stoelting Co.).
Mice were individually handled as described in the open field test. […] Latency to fall for each trial was automatically recorded by the apparatus. […]

SMILES: C[N+]1([O-])CCN(C2=Nc3cc(Cl)ccc3Nc3ccccc32)CC1 [CNO, Clozapine-N-oxide]
- rotations (FIG. 6A), mean±SEM; CNO induced ipsiversive rotations ([1]; AAV8R12-G88P3-HA-hM3Dq nigral, CNO i.p., saline 45.25±4.128, n=8): 87.84±4.666
- rotations (FIG. 6A), mean±SEM; CNO induced contraversive rotations ([1]; AAV8R12-G88P3-HA-hM3Dq nigral, CNO intracranial into dorsomedial striatum, saline 49.63±5.879, n=8): 15.08±3.435
- c-Fos+ cells in the SNr ([1]; intracranial CNO infusion): No significant changes in the number of nigral c-Fos+ cells
- c-Fos+ cells in the SNr ([1]; intraperitoneal CNO): significant increase in c-Fos+ cells in the right SNr
- rotation behavior (FIG. 6C), mean±SEM ([1]; CNO i.p., saline 47.08±10.5): 44.72±10.89
- rotation behavior (FIG. 6C), mean±SEM ([1]; CNO intracranial, saline 54.22±8.766): 61.39±5.774
- motor skill, rotarod test ([2]; CNO): partially rescued the motor skill deficit
- spontaneous movement in an open field ([2]; systemic CNO): drastically reversed the dyskinesia-like phenotype of PD mice

Source: US20250382346A1, “NEURONAL PROMOTERS AND USES THEREOF” (priority 2023, published 2025)
